Experimental data reported in US20250230193A1, “CYCLIC COMPOUND HAVING SELECTIVE KRAS INHIBITORY EFFECT ON HRAS AND NRAS” (CHUGAI SEIYAKU KABUSHIKI KAISHA, priority 2022, published 2025).

What was measured:
[1] = target: GDP-bound NRAS wild-type protein (Homo sapiens, UniProt P01111); experiment: Binding to NRAS by surface plasmon resonance (SPR), Single Cycle Kinetics; settings: KD ratio NRAS/KRAS, class symbols
[2] = target: GDP-bound HRAS wild-type protein (Homo sapiens, UniProt P01112); experiment: Binding to HRAS by surface plasmon resonance (SPR), Single Cycle Kinetics; settings: KD ratio HRAS/KRAS, class symbols
Sequence of GDP-bound HRAS wild-type protein (P01112 whole entry): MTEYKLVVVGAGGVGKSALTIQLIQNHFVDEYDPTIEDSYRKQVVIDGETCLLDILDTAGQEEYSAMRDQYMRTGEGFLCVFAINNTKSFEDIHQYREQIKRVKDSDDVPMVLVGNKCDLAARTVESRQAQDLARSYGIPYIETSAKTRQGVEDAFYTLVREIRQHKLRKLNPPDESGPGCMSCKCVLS

Sequence of GDP-bound NRAS wild-type protein (P01111 whole entry): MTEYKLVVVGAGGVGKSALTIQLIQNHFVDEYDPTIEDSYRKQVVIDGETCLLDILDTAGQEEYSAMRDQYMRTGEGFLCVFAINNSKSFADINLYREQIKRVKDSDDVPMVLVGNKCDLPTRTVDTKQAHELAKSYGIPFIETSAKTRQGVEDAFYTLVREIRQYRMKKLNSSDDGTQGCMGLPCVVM

| Compound | NRAS/KRAS (ratio of KD value with respect to GDP-bound NRAS wild-type protein to KD value with respect to KRAS) [1] | HRAS/KRAS (ratio of KD value with respect to GDP-bound HRAS wild-type protein to KD value with respect to KRAS) [2] |
| --- | --- | --- |
| CCC[C@H]1C(=O)N[C@@H]([C@@H](C)CC)C(=O)N(C)CC(=O)N(C)[C@H]2C/C=C\CCN(C2=O)[C@@H](Cc2ccc(C(F)(F)F)cc2)C(=O)N(C)CC(=O)N[C@@H](CCc2cc(F)c(C(F)(F)F)c(F)c2)C(=O)N2C[C@H](OCC)C[C@H]2C(=O)NC2(CC(C)(C)C2)C(=O)N(C)[C@@H](CC2CC2)C(=O)N(C)[C@H](C(=O)N(C)C)CC(=O)N1C [PP2807] | AA (a compound having 20 or more is denoted as AA) | A (a compound having 10 or more and less than 20 is denoted as A) |
| CCCC[C@H]1C(=O)N[C@@H]([C@@H](C)CC)C(=O)N(C)CC(=O)N(C)[C@H]2C/C=C\CCN(C2=O)[C@@H](Cc2ccc(C)cc2)C(=O)N(C)CC(=O)N[C@@H](CCc2cc(F)c(C(F)(F)F)c(F)c2)C(=O)N2C[C@H](OCC)C[C@H]2C(=O)NC2(CC(C)(C)C2)C(=O)N(C)[C@@H](C2CCCC2)C(=O)N(C)[C@H](C(=O)N(C)CC)CC(=O)N1C [PP2808] | B (a compound having 3 or more and less than 10 is denoted as B) | B (a compound having 3 or more and less than 10 is denoted as B) |
| CCC[C@H]1C(=O)N[C@@H]([C@@H](C)CC)C(=O)N(C)CC(=O)N(C)[C@H]2C/C=C\CCN(C2=O)[C@@H](Cc2ccc(C(F)(F)F)cc2)C(=O)N(C)CC(=O)N[C@@H](CCc2ccc(C(F)(F)F)c(OC)c2)C(=O)N2C[C@H](OCC)C[C@H]2C(=O)NC2(CC(C)(C)C2)C(=O)N(C)[C@@H](CC2CC2)C(=O)N(C)[C@H](C(=O)N(C)C)CC(=O)N1C [PP2809] | A (a compound having 10 or more and less than 20 is denoted as A) | A (a compound having 10 or more and less than 20 is denoted as A) |
| CCO[C@@H]1C[C@H]2C(=O)N(C)C3(CC(C)(C)C3)C(=O)N(C)[C@@H](C(CC)CC)C(=O)N(C)[C@H](C(=O)N(C)C)CC(=O)N(C)[C@@H](COC)C(=O)N[C@@H]([C@@H](C)CC)C(=O)N(C)CC(=O)N(C)[C@H]3C/C=C\CCN(C3=O)[C@@H](Cc3ccc(C)cc3)C(=O)N(C)CC(=O)N[C@@H](CCc3ccc(Cl)c(Cl)c3)C(=O)N2C1 [PP2810] | AA (a compound having 20 or more is denoted as AA) | A (a compound having 10 or more and less than 20 is denoted as A) |
| CCC[C@H]1C(=O)N[C@@H]([C@@H](C)CC)C(=O)N(C)CC(=O)N(C)[C@H]2C/C=C\CCN(C2=O)[C@@H](Cc2ccc(C(F)(F)F)cc2)C(=O)N(C)CC(=O)N[C@@H](CCc2ccc(Cl)c(Cl)c2)C(=O)N2C[C@H](OCC)C[C@H]2C(=O)NC2(CC(C)(C)C2)C(=O)N(C)[C@@H](CC2CC2)C(=O)N(C)[C@H](C(=O)N(C)C)CC(=O)N1C [PP2811] | A (a compound having 10 or more and less than 20 is denoted as A) | A (a compound having 10 or more and less than 20 is denoted as A) |
| CCCO[C@@H]1C[C@H]2C(=O)N(C)C3(CC(C)(C)C3)C(=O)N(C)[C@@H](C(CC)CC)C(=O)N(C)[C@H](C(=O)N(C)C)CC(=O)N(C)[C@@H](COC)C(=O)N[C@@H]([C@@H](C)CC)C(=O)N(C)CC(=O)N(C)[C@H]3C/C=C\CCN(C3=O)[C@@H](Cc3ccc(C)cc3)C(=O)N(C)CC(=O)N[C@@H](CCc3ccc(Cl)c(Cl)c3)C(=O)N2C1 [PP2812] | AA (a compound having 20 or more is denoted as AA) | A (a compound having 10 or more and less than 20 is denoted as A) |
| CCC[C@H]1C(=O)N[C@@H]([C@@H](C)CC)C(=O)N(C2CC2)CC(=O)N(C)[C@H]2C/C=C\CCN(C2=O)[C@@H](Cc2ccc(C(F)(F)F)cc2)C(=O)N(C)CC(=O)N[C@@H](CCc2cc(F)c(C(F)(F)F)c(F)c2)C(=O)N2C[C@H](OCC)C[C@H]2C(=O)NC2(CC(C)(C)C2)C(=O)N(C)[C@@H](CC2CC2)C(=O)N(C)[C@H](C(=O)N(C)C)CC(=O)N1C [PP2813] | AA (a compound having 20 or more is denoted as AA) | A (a compound having 10 or more and less than 20 is denoted as A) |
| CCC(CC)[C@H]1C(=O)N(C)[C@H](C(=O)N(C)C)CC(=O)N(C)[C@@H](COC)C(=O)N[C@@H]([C@@H](C)CC)C(=O)N(C)CC(=O)N(C)[C@H]2C/C=C\CCN(C2=O)[C@@H](Cc2ccc(C)cc2)C(=O)N(C)CC(=O)N[C@@H](CCc2ccc(Cl)c(Cl)c2)C(=O)N2C[C@H](OC(C)C)C[C@H]2C(=O)N(C)C2(CC(C)(C)C2)C(=O)N1C [PP2814] | AA (a compound having 20 or more is denoted as AA) | A (a compound having 10 or more and less than 20 is denoted as A) |
| CCC[C@H]1C(=O)N[C@@H]([C@@H](C)CC)C(=O)N(C2CC2)CC(=O)N(C)[C@H]2C/C=C\CCN(C2=O)[C@@H](Cc2ccc(C(F)(F)F)cc2)C(=O)N(C)CC(=O)N[C@@H](CCc2ccc(C(F)(F)F)c(OC)c2)C(=O)N2C[C@H](OCC)C[C@H]2C(=O)NC2(CC(C)(C)C2)C(=O)N(C)[C@@H](CC2CC2)C(=O)N(C)[C@H](C(=O)N(C)C)CC(=O)N1C [PP2815] | A (a compound having 10 or more and less than 20 is denoted as A) | A (a compound having 10 or more and less than 20 is denoted as A) |
| CCC(CC)[C@H]1C(=O)N(C)[C@H](C(=O)N(C)C)CC(=O)N(C)[C@@H](COC)C(=O)N[C@@H]([C@@H](C)CC)C(=O)N(C)CC(=O)N(C)[C@H]2C/C=C\CCN(C2=O)[C@@H](Cc2ccc(C)cc2)C(=O)N(C)CC(=O)N[C@@H](CCc2ccc(Cl)c(Cl)c2)C(=O)N2C[C@H](OC3CCC3)C[C@H]2C(=O)N(C)C2(CC(C)(C)C2)C(=O)N1C [PP2816] | AA (a compound having 20 or more is denoted as AA) | A (a compound having 10 or more and less than 20 is denoted as A) |
| CCC[C@H]1C(=O)N[C@@H]([C@@H](C)CC)C(=O)N(C2CC2)CC(=O)N(C)[C@H]2C/C=C\CCN(C2=O)[C@@H](Cc2ccc(C(F)(F)F)cc2)C(=O)N(C)CC(=O)N[C@@H](CCc2ccc(Cl)c(Cl)c2)C(=O)N2C[C@H](OCC)C[C@H]2C(=O)NC2(CC(C)(C)C2)C(=O)N(C)[C@@H](CC2CC2)C(=O)N(C)[C@H](C(=O)N(C)C)CC(=O)N1C [PP2817] | A (a compound having 10 or more and less than 20 is denoted as A) | A (a compound having 10 or more and less than 20 is denoted as A) |
| CCC(CC)[C@H]1C(=O)N(C)[C@H](C(=O)N(C)C)CC(=O)N(C)[C@@H](COC)C(=O)N[C@@H]([C@@H](C)CC)C(=O)N(C)CC(=O)N(C)[C@H]2C/C=C\CCN(C2=O)[C@@H](Cc2ccc(C)cc2)C(=O)N(C)CC(=O)N[C@@H](CCc2ccc(Cl)c(Cl)c2)C(=O)N2C[C@H](OC3CCCC3)C[C@H]2C(=O)N(C)C2(CC(C)(C)C2)C(=O)N1C [PP2818] | A (a compound having 10 or more and less than 20 is denoted as A) | A (a compound having 10 or more and less than 20 is denoted as A) |
| CCC[C@H]1C(=O)N[C@@H]([C@@H](C)CC)C(=O)N(C2CC2)CC(=O)N(C)[C@H]2C/C=C\CCN(C2=O)[C@@H](Cc2ccc(C(F)(F)F)cc2)C(=O)N(C)CC(=O)N[C@@H](CCc2ccc(Cl)c(Cl)c2)C(=O)N2C[C@H](OCC)C[C@H]2C(=O)NC2(CC(C)(C)C2)C(=O)N(C)[C@@H](CC2CCC2)C(=O)N(C)[C@H](C(=O)N(C)C)CC(=O)N1C [PP2819] | A (a compound having 10 or more and less than 20 is denoted as A) | A (a compound having 10 or more and less than 20 is denoted as A) |
| CCC(CC)[C@H]1C(=O)N(C)[C@H](C(=O)N(C)C)CC(=O)N(C)[C@@H](COC)C(=O)N[C@@H]([C@@H](C)CC)C(=O)N(C)CC(=O)N(C)[C@H]2C/C=C\CCN(C2=O)[C@@H](Cc2ccc(C)cc2)C(=O)N(C)CC(=O)N[C@@H](CCc2ccc(Cl)c(Cl)c2)C(=O)N2CC3(CC3)C[C@H]2C(=O)N(C)C2(CC(C)(C)C2)C(=O)N1C [PP2820] | AA (a compound having 20 or more is denoted as AA) | A (a compound having 10 or more and less than 20 is denoted as A) |
| CCO[C@@H]1C[C@H]2C(=O)NC3(CC(C)(C)C3)C(=O)N(C)[C@@H](CC3CCC3)C(=O)N(C)[C@H](C(=O)N(C)C)CC(=O)N(C)[C@@H](COC)C(=O)N[C@@H]([C@@H](C)CC)C(=O)N(C3CC3)CC(=O)N(C)[C@H]3C/C=C\CCN(C3=O)[C@@H](Cc3ccc(C(F)(F)F)cc3)C(=O)N(C)CC(=O)N[C@@H](CCc3ccc(Cl)c(Cl)c3)C(=O)N2C1 [PP2821] | A (a compound having 10 or more and less than 20 is denoted as A) | A (a compound having 10 or more and less than 20 is denoted as A) |
| CCO[C@@H]1C[C@H]2C(=O)NC3(CC(C)(C)C3)C(=O)N(C)[C@@H](C3CCCC3)C(=O)N(C)[C@H](C(=O)N(C)CC)CC(=O)N(C)[C@@H](CC)C(=O)N[C@@H]([C@@H](C)CC)C(=O)N(C)CC(=O)N(C)[C@H]3C/C=C\CCN(C3=O)[C@@H](Cc3ccc(C(F)(F)F)cc3)C(=O)N(C)CC(=O)N[C@@H](CCc3ccc(Cl)c(Cl)c3)C(=O)N2C1 [PP2822] | A (a compound having 10 or more and less than 20 is denoted as A) | A (a compound having 10 or more and less than 20 is denoted as A) |
